Laboratory results as given in patent publication US9708368B2, “Linear peptide antibiotics” (priority 2012, dated 2017).
Values after ≈ are worked out from the molar mass of the structure shown. Numbered stars: 1 amine (or outer) side, 2 acyl side, 3 side chain; on linkers, the order of the positions; unused ones are H or OH. Square brackets hold non-standard residues; d marks the D form. Peptide text beside a SMILES is read from it. * marks the point of attachment. ξ: configuration not given here. Biphenylcarbonyl(4'-Bu) = CCCCc1ccc(-c2ccc(C(=O)*)cc2)cc1; X1 = C[C@H](N*)B1OC2C[C@@H]3C[C@@H](C3(C)C)[C@]2(C)O1; Benzoyl(4-(4-Cl-Ph)) = O=C(c1ccc(-c2ccc(Cl)cc2)cc1)*; ξ3Amino2oxobutanoyl = CC(N[*:1])C(=O)C(=O)[*:2]; Benzoyl(4-hexyl) = CCCCCCc1ccc(C(=O)*)cc1; Pro(4S-NH2) = N[C@@H]1CN[C@H](C(=O)O)C1; NMeThr(3ξ) = CN[C@H](C(=O)O)C(C)O; X9 = COC(=O)CN1C[C@@H](N*)C1=O; NMeK = CN[C@@H](CCCCN)C(=O)O; Tle = CC(C)(C)[C@H](N)C(=O)O; boroAla = C[C@H](N*)B(O)O; Dab = NCC[C@H](N)C(=O)O; Dap = NC[C@H](N)C(=O)O; boroGly = OB(O)CN*; βAla = NCCC(=O)O

Experiments:
[1] = test system: Escherichia coli strain MC4100 IMP-4213, which harbors an LptD mutation; conditions: Method B; E. coli MC4100 IMP-4213 (LptD mutation); 35° C., 22 hours
Protocol: In vitro antimicrobial activity of each compound was determined by measuring minimal inhibitor concentrations (MICs) using the broth micro-dilution technique as approved by the Clinical and Laboratory Standards Institute (CLSI). […] Bacterial inocula were prepared by scraping cells into 1 mL of testing media (cation adjusted Mueller Hinton Broth supplemented with 0.002% v/v Tween-80) and diluting to a final OD600 nm of 0.01.
Test compounds were prepared in DMSO at a concentration of 10 mg/ml. […] Bacterial inocula were added to the two fold serial dilutions of test compounds to a final density of OD OD600 nm of 0.0005 and incubated stationarily at 35° C. for 22 hours, after which the plates were examined visually.

[2] = test system: methicillin resistant Staphylococcus aureus (MRSA) strain USA300 (NRS384); conditions: Method B, 35° C., 22 hours
[3] = biological target: S. aureus SPase (Staphylococcus aureus, UniProt P0A070); assay: biochemical
[4] = biological target: E. coli SPase (Escherichia coli, UniProt P00803); assay: Biochemical SPase activity assay (fluorogenic peptide substrate), E. coli enzyme

## CC(C)C[C@H](NC(=O)[C@H](C)NC(=O)[C@H](CN)NC(=O)[C@H](CN)NC(=O)c1ccc(-c2ccc(Cl)cc2)cc1)C(=O)N[C@@H](C)B(O)O [Compound 176] ({Benzoyl(4-(4-Cl-Ph))}-[Dap][Dap]AL-boroAla)
[1]
  MIC (μg/mL) E. coli: 8 µg/mL (≈ 12.1 µM)
[2]
  MIC (μg/mL) S. aureus: 16 µg/mL (≈ 24.2 µM)
[3]
  IC50: 1200 nM
[4]
  IC50: 56 nM

## CCCCc1ccc(-c2ccc(C(=O)NCCC(=O)N[C@@H](CCCCN)C(=O)N[C@H](C(=O)N[C@@H](C)C(=O)N[C@@H](CC(C)C)C(=O)N[C@@H](C)B3OC4C[C@@H]5C[C@@H](C5(C)C)[C@]4(C)O3)[C@@H](C)O)cc2)cc1 (some centres unmarked) [Compound 198] ({Biphenylcarbonyl(4'-Bu)-βAla}-KTAL-X1)
[1]
  MIC (μg/mL) E. coli: 5 µg/mL (≈ 5.3 µM)
[2]
  MIC (μg/mL) S. aureus: 0.5 µg/mL (≈ 0.53 µM)
[3]
  IC50: 8.9 nM
[4]
  IC50: 42 nM

## CCCCc1ccc(-c2ccc(C(=O)NCCC(=O)N3C[C@@H](N)C[C@H]3C(=O)N[C@H](C(=O)N[C@@H](C)C(=O)N[C@@H](CC(N)=O)C(=O)N[C@@H](C)B3OC4C[C@@H]5C[C@@H](C5(C)C)[C@]4(C)O3)[C@@H](C)O)cc2)cc1 (stereo partly drawn) [Compound 213] ({Biphenylcarbonyl(4'-Bu)-βAla}-[Pro(4S-NH2)]TAN-X1)
[1]
  MIC (μg/mL) E. coli: 1.3 µg/mL (≈ 1.4 µM)
[2]
  MIC (μg/mL) S. aureus: 0.22 µg/mL (≈ 0.237 µM)
[3]
  IC50: 7.7 nM
[4]
  IC50: 6.8 nM

## CCCCc1ccc(-c2ccc(CNCCC[C@H](N)C(=O)N[C@H](C(=O)N[C@@H](C)C(=O)N[C@@H](CCCCN)C(=O)N[C@@H](C)B3OC4C[C@@H]5C[C@@H](C5(C)C)[C@]4(C)O3)[C@@H](C)O)cc2)cc1 (some centres unmarked) [Compound 274]
[1]
  MIC (μg/mL) E. coli: 16 µg/mL (≈ 18.6 µM)
[2]
  MIC (μg/mL) S. aureus: 0.13 µg/mL (≈ 0.151 µM)
[3]
  IC50: 35 nM
[4]
  IC50: 1700 nM

## CCCCc1ccc(-c2ccc(CNCC[C@H](N)C(=O)N[C@H](C(=O)N[C@@H](C)C(=O)N[C@@H](CCCCN)C(=O)N[C@@H](C)B3OC4C[C@@H]5C[C@@H](C5(C)C)[C@]4(C)O3)[C@@H](C)O)cc2)cc1 (some centres unmarked) [Compound 276]
[1]
  MIC (μg/mL) E. coli: 16 µg/mL (≈ 18.9 µM)
[2]
  MIC (μg/mL) S. aureus: 0.5 µg/mL (≈ 0.591 µM)
[3]
  IC50: 110 nM
[4]
  IC50: 2000 nM

## CCCCc1ccc(-c2ccc(C(=O)NCCCC[C@H](NC(=O)[C@H](CCN)NC(C)=O)C(=O)N[C@@H](C)C(=O)N[C@@H](CCCCN)C(=O)N[C@@H](C)B3OC4C[C@@H]5C[C@@H](C5(C)C)[C@]4(C)O3)cc2)cc1 (some centres unmarked) [Compound 279] (Ac-[Dab]K(Biphenylcarbonyl(4'-Bu))AK-X1)
[1]
  MIC (μg/mL) E. coli: 8 µg/mL (≈ 8.61 µM)
[2]
  MIC (μg/mL) S. aureus: 11 µg/mL (≈ 11.8 µM)
[3]
  IC50: 7400 nM
[4]
  IC50: 530 nM

## CCCCc1ccc(-c2ccc(C(=O)N[C@H](CO)C(=O)N[C@H](C)C(=O)NCC(=O)N(C)[C@@H](CCCCN)C(=O)N[C@@H](C)C(=O)N[C@@H](CC(N)=O)C(=O)N[C@@H](C)B3OC4C[C@@H]5C[C@@H](C5(C)C)[C@]4(C)O3)cc2)cc1 (some centres unmarked) [Compound 228] ({Biphenylcarbonyl(4'-Bu)}-[dS][dA]G[NMeK]AN-X1)
[1]
  MIC (μg/mL) E. coli: 2.8 µg/mL (≈ 2.79 µM)
[2]
  MIC (μg/mL) S. aureus: 5.7 µg/mL (≈ 5.69 µM)
[3]
  IC50: 270 nM
[4]
  IC50: 360 nM

## CCCCc1ccc(-c2ccc(C(=O)NCCC(=O)N[C@@H](CCCCN)C(=O)N[C@@H](CCCCN)C(=O)N[C@@H](C)C(=O)N[C@@H](CCCCN)C(=O)N[C@@H](C)B(O)O)cc2)cc1 [Compound 224] ({Biphenylcarbonyl(4'-Bu)-βAla}-KKAK-boroAla)
[1]
  MIC (μg/mL) E. coli: 2.8 µg/mL (≈ 3.29 µM)
[2]
  MIC (μg/mL) S. aureus: 0.13 µg/mL (≈ 0.153 µM)
[3]
  IC50: 12 nM
[4]
  IC50: 55 nM

## CCCCc1ccc(-c2ccc(C(=O)N[C@@H](CCN)C(=O)N[C@H](C(=O)N[C@@H](C)C(=O)N[C@@H](CCCCN)C(=O)N[C@@H](C)B(O)O)[C@@H](C)O)cc2)cc1 [Compound 178] ({Biphenylcarbonyl(4'-Bu)}-[Dab]TAK-boroAla)
[1]
  MIC (μg/mL) E. coli: 0.25 µg/mL (≈ 0.344 µM)
[2]
  MIC (μg/mL) S. aureus: 0.063 µg/mL (≈ 0.0868 µM)
[3]
  IC50: 58 nM
[4]
  IC50: 3.1 nM

## C[C@H](NC(=O)[C@H](CCCCN)NC(=O)[C@H](C)NC(=O)[C@@H](NC(=O)[C@H](CN)NC(=O)c1ccc(-c2ccc(Cl)cc2)cc1)[C@@H](C)O)B(O)O [Compound 175] ({Benzoyl(4-(4-Cl-Ph))}-[Dap]TAK-boroAla)
[1]
  MIC (μg/mL) E. coli: 2 µg/mL (≈ 2.9 µM)
[2]
  MIC (μg/mL) S. aureus: 1.2 µg/mL (≈ 1.74 µM)
[3]
  IC50: 110 nM
[4]
  IC50: 5.5 nM

## CCCCc1ccc(-c2ccc(CNCCC(=O)N[C@H](C(=O)N[C@@H](C)C(=O)N[C@@H](CCCCN)C(=O)N[C@@H](C)B3O[C@@H]4C[C@@H]5C[C@@H](C5(C)C)[C@]4(C)O3)[C@@H](C)O)cc2)cc1 [Compound 270]
[1]
  MIC (μg/mL) E. coli: 8 µg/mL (≈ 9.79 µM)
[2]
  MIC (μg/mL) S. aureus: 0.5 µg/mL (≈ 0.612 µM)
[3]
  IC50: 120 nM
[4]
  IC50: 650 nM

## CCCCCCc1ccc(C(=O)N[C@H](CO)C(=O)N[C@H](C)C(=O)NCC(=O)N(C)[C@H](C(=O)N[C@@H](C)C(=O)N[C@@H](CC(N)=O)C(=O)NC(C)C(=O)C(=O)NC)C(C)O)cc1 (some centres unmarked) [Compound 113] ({Benzoyl(4-hexyl)}-[dS][dA]G[NMeThr(3ξ)]AN[ξ3Amino2oxobutanoyl]-NHMe)
[3]
  IC50: 470 nM

## CCCCc1ccc(-c2ccc(C(=O)N[C@@H](CCCCN)C(=O)N3CCC[C@H]3C(=O)N[C@@H](C)C(=O)N[C@@H](CCCCN)C(=O)N[C@@H]3CN(CC(=O)OC)C3=O)cc2)cc1 [Compound 258] ({Biphenylcarbonyl(4'-Bu)}-KPAK-X9)
[1]
  MIC (μg/mL) E. coli: 23 µg/mL (≈ 28.1 µM)
[2]
  MIC (μg/mL) S. aureus: >64 µg/mL
[3]
  IC50: 50000 nM

## CCCCc1ccc(-c2ccc(C(=O)NCCC(=O)N[C@@H](CCCCN)C(=O)N[C@H](C(=O)N[C@@H](C)C(=O)N[C@H](C(=O)N[C@@H](C)B3OC4C[C@@H]5C[C@@H](C5(C)C)[C@]4(C)O3)C(C)(C)C)[C@@H](C)O)cc2)cc1 (some centres unmarked) [Compound 211] ({Biphenylcarbonyl(4'-Bu)-βAla}-KTA[Tle]-X1)
[1]
  MIC (μg/mL) E. coli: 32 µg/mL (≈ 33.9 µM)
[2]
  MIC (μg/mL) S. aureus: 0.71 µg/mL (≈ 0.752 µM)
[3]
  IC50: 36 nM

## CCCCc1ccc(-c2ccc(CN[C@@H](CCN)C(=O)N[C@H](C(=O)N[C@@H](C)C(=O)N[C@@H](CCCCN)C(=O)N[C@@H](C)B(O)O)[C@@H](C)O)cc2)cc1 [Compound 267]
[3]
  IC50: 33 nM
[4]
  IC50: 11 nM

## CCCCCCc1ccc(C(=O)N[C@H](CO)C(=O)N[C@H](C)C(=O)NCC(=O)N(C)[C@H](C(=O)N[C@@H](C)C(=O)N[C@@H](CC(C)C)C(=O)NCB(O)O)C(C)O)cc1 (some centres unmarked) [Compound 125] ({Benzoyl(4-hexyl)}-[dS][dA]G[NMeThr(3ξ)]AL-boroGly)
[3]
  IC50: 55 nM
[4]
  IC50: 730 nM

## CCCCCCc1ccc(C(=O)N[C@H](CO)C(=O)N[C@H](C)C(=O)NCC(=O)N(C)[C@H](C(=O)N[C@@H](C)C(=O)N[C@@H](CC(C)C)C(=O)NC(C)C(=O)C(=O)NC)C(C)O)cc1 (some centres unmarked) [Compound 114] ({Benzoyl(4-hexyl)}-[dS][dA]G[NMeThr(3ξ)]AL[ξ3Amino2oxobutanoyl]-NHMe)
[3]
  IC50: 390 nM

## CCCCc1ccc(-c2ccc(C(=O)N[C@@H](CCN)C(=O)N[C@H](C(=O)N[C@@H](C)C(=O)N[C@@H](CCCCN)C(=O)N[C@@H](C)B(O)O)[C@@H](C)O)cc2)cc1 [Compound 267] ({Biphenylcarbonyl(4'-Bu)}-[Dab]TAK-boroAla)
[2]
  MIC (μg/mL) S. aureus: 0.13 µg/mL (≈ 0.179 µM)

## CC(C)C[C@H](NC(=O)[C@H](C)NC(=O)[C@H](CCCCN)NC(=O)[C@H](CCCCN)NC(=O)c1ccc(-c2ccc(Cl)cc2)cc1)C(=O)N[C@@H](C)B(O)O [Compound 155] ({Benzoyl(4-(4-Cl-Ph))}-KKAL-boroAla)
[3]
  IC50: 250 nM
[4]
  IC50: 39 nM
